Results as given in patent US10829520B2, “Beta-hairpin peptidomimetics” (POLYPHOR AG, priority 2015, dated 2020).
Where a SMILES comes first, the peptide text is derived from it. Bridges are numbered along the chain shown (N, C = ends). Roman numbers before positions name the chains, in order. [ ]: non-standard residue; d: D form. Ala(cPent) = N[C@@H](CC1CCCC1)C(=O)O; Tle = CC(C)(C)[C@H](N)C(=O)O; dNle = CCCC[C@@H](N)C(=O)O; dDab = NCC[C@@H](N)C(=O)O; Nle = CCCC[C@H](N)C(=O)O; Orn = NCCC[C@H](N)C(=O)O; Dab = NCC[C@H](N)C(=O)O; Sar = CNCC(=O)O

Assays:
Format in all cases: cell-based
[1] = test system: Acinetobacter baumannii DSM 30008; details: DSM 30008
Description: (§1) Lyophilized peptides were weighed on a Microbalance (Mettler MT5) and dissolved in sterile water to a final concentration of 1 mg/mL. Stock solutions were kept at +4° C., light protected.
(§2) The in vitro antimicrobial activities of the peptides were determined in 96-well plates (Greiner, polystyrene) by the standard CLSI broth microdilution method (Clinical and Laboratory Standards Institute 2014. Performance standards for antimicrobial susceptibility testing, 24th informational supplement. Approved standard CLSI M100-S24; Clinical and Laboratory Standards Institute, Wayne, Pa.). Inocula of the microorganisms were diluted into Mueller-Hinton II (MH-cation adjusted) broth and compared with a 0.5 McFarland standard to give appr. 10^6 colony forming units (CFU)/mL. Aliquots (90 μL) of inoculate were added to 10 μL of MH-II broth+P-80 (Polysorbate 80, 0.002% final concentration, v/v) containing the peptide in serial two-fold dilutions. The following microorganisms were used to determine antibiotic activity of the peptides: Escherichia coli ATCC 25922, Klebsiella pneumoniae SSI #3010^a), Acinetobacter baumannii DSM 30008, Pseudomonas aeruginosa ATCC 27853 and the clinical isolates Escherichia coli 926415^b), Klebsiella pneumoniae 968733^b) and Acinetobacter baumannii 872842^b). Antimicrobial activities of the peptides were expressed as the minimal inhibitory concentration (MIC) in μg/mL at which no visible growth was observed after 18-20 hours of incubation at 35° C. ^a) Obtained from Statens Serum Institut (SSI), Copenhagen, Denmark^b) Obtained from International Health Management Associates, Inc. (IHMA Europe Sàrl), Epalinges, Switzerland

[2] = test system: Escherichia coli ATCC 25922; details: ATCC 25922
Description: as §1, §2

[3] = test system: Klebsiella pneumoniae SSI #3010; details: SSI #3010
Description: as §1, §2

[4] = test system: Pseudomonas aeruginosa ATCC 27853; details: ATCC 27853
Description: as §1, §2

[5] = test system: human red blood cells (hRBC); experiment: Hemolysis of human red blood cells; details: red cells of human, 1 h
Description: as §1
The peptides were tested for their hemolytic activity against human red blood cells (hRBC). Fresh hRBC were washed three times with phosphate buffered saline (PBS) and centrifuged for 10 min at 2000×g. Compounds (100 μg/mL) were incubated with 20% hRBC (v/v) for 1 h at 37° C. and shaking at 300 rpm. The final erythrocyte concentration was approximately 0.9×10^9 cells/mL. A value of 0% and 100% cell lyses, respectively, was determined by incubation of hRBC in the presence of PBS containing 0.001% acetic acid and 2.5% Triton X-100 in H2O, respectively. The samples were centrifuged, the supernatants were 8-fold diluted in PBS buffer and the optical densities (OD) were measured at 540 nm. The 100% lyses value (OD540H2O) gave an OD540 of approximately 0.5-1.0.
Percent hemolysis was calculated as follows: (OD540peptide/OD540H2O)×100%.

Row | Structure (SMILES) | Acinetobacter baumannii DSM 30008 MIC [1] [µg/mL] | Escherichia coli ATCC 25922 MIC [2] [µg/mL] | Klebsiella pneumoniae SSI #3010 MIC [3] [µg/mL] | Pseudomonas aeruginosa ATCC 27853 MIC [4] [µg/mL] | Hemolysis at 100 μg/mL ([5]; 100 μg/mL) [%] | Hemolysis at 100 μg/mL [5]; 100 [%]
1 | CCCC[C@@H]1NC(=O)[C@@H]2CCCN2C(=O)[C@H]2CCCN2C(=O)[C@H](CO)NC(=O)[C@H](C)NC(=O)[C@H](C(C)(C)C)NC(=O)[C@@H](NC(=O)[C@@H](N)Cc2c[nH]c3ccccc23)CSSC[C@@H](C(=O)N[C@@H](CCCN)C(=O)N[C@@H](CCN)C(=O)N[C@H]2CCNC(=O)[C@H]([C@@H](C)O)NC(=O)[C@H](CCN)NC(=O)[C@H](CCN)NC(=O)[C@H](CC(C)C)NC(=O)[C@@H](CCCC)NC(=O)[C@H](CCN)NC2=O)NC(=O)[C@H](Cc2ccc(O)cc2)NC(=O)[C@H](CO)NC1=O [Ex. 192] (H-WC[Tle]AS[dP]P[Nle]SYC[Orn][Dab][Dab][Dab][dNle]L[Dab][Dab]T; disulfide 2-11; lactam 14-C) | 0.25 | 0.25 | 0.25 | 2 | 5 | 
2 | CCCC[C@@H]1NC(=O)[C@@H]2CCCN2C(=O)[C@H]2CCCN2C(=O)[C@H](CO)NC(=O)[C@H](C)NC(=O)[C@H](C(C)C)NC(=O)[C@@H](NC(=O)[C@H](Cc2c[nH]c3ccccc23)NC(C)=O)CSSC[C@@H](C(=O)N[C@@H](CCCN)C(=O)N[C@@H](CCN)C(=O)N[C@H]2CCNC(=O)[C@H]([C@@H](C)O)NC(=O)[C@H](CCN)NC(=O)[C@H](CCN)NC(=O)[C@H](CC(C)C)NC(=O)[C@@H](Cc3ccccc3)NC(=O)[C@H](CCN)NC2=O)NC(=O)[C@H](Cc2ccc(O)cc2)NC(=O)[C@H](CO)NC1=O [Ex. 55] (Ac-WCVAS[dP]P[Nle]SYC[Orn][Dab][Dab][Dab][dF]L[Dab][Dab]T; disulfide 2-11; lactam 14-C) | 1 | 0.5 | 1 | 2 | 1 | 
3 | CC(C)C[C@@H]1NC(=O)[C@H](CCN)NC(=O)[C@@H](CCN)NC(=O)[C@H](CO)NC(=O)[C@@H](NC(=O)[C@@H](NC(=O)[C@H](CCN)NC(=O)[C@@H](N)Cc2c[nH]c3ccccc23)C(C)C)CSSC[C@@H](C(=O)N[C@@H](Cc2ccc(O)cc2)C(=O)N[C@@H](CCN)C(=O)NCC(=O)N[C@@H](CCN)C(=O)N[C@H](C(=O)N[C@@H](CCN)C(=O)N[C@H]2CCNC(=O)[C@H]([C@@H](C)O)NC(=O)[C@H](CCN)NC(=O)[C@H](CCN)NC(=O)[C@H](CC(C)C)NC(=O)[C@@H](CC(C)C)NC(=O)[C@H](CCN)NC2=O)[C@@H](C)O)NC1=O [Ex. 163] (H-W[Dab]VCS[dDab][Dab]LCY[Dab]G[Dab]T[Dab][Dab][Dab][dL]L[Dab][Dab]T; disulfide 4-9; lactam 16-C) | 1 | 2 | 2 | 2 | <1 | 
4 | CC(C)C[C@@H]1NC(=O)[C@@H](CC(C)C)NC(=O)[C@H](CCN)NC(=O)[C@@H](NC(=O)[C@H](CCN)NC(=O)[C@@H](NC(=O)[C@H](CCN)NC(=O)CN(C)C(=O)[C@@H]2CSSC[C@H](NC(=O)[C@@H](N)Cc3c[nH]c4ccccc34)C(=O)N[C@@H](C(C)C)C(=O)N[C@@H](C)C(=O)N[C@@H](CO)C(=O)N3CCC[C@@H]3C(=O)N3CCC[C@H]3C(=O)N[C@@H](CC(C)C)C(=O)N[C@@H](CO)C(=O)N[C@@H](Cc3ccc(O)cc3)C(=O)N2)[C@@H](C)O)CCNC(=O)[C@@H](C(C)C)NC(=O)[C@H](CCN)NC(=O)[C@H](CCN)NC1=O [Ex. 180] (H-WCVAS[dP]PLSYC[Sar][Dab]T[Dab][Dab][Dab][dL]L[Dab][Dab][dV]; disulfide 2-11; lactam 16-C) | 0.25 | 0.125 | 0.125 | 1 | <1 | 
5 | CCCC[C@@H]1NC(=O)[C@@H]2CCCN2C(=O)[C@H]2CCCN2C(=O)[C@H](CO)NC(=O)[C@H](C)NC(=O)[C@H](C(C)(C)C)NC(=O)[C@H](CCN)NC(=O)[C@H](Cc2c[nH]c3ccccc23)NC(=O)[C@@H](N)CSSC[C@@H](C(=O)N[C@H](CCN)C(=O)N[C@H]2CCNC(=O)[C@H]([C@@H](C)O)NC(=O)[C@H](CCN)NC(=O)[C@H](CCN)NC(=O)[C@H](CC(C)C)NC(=O)[C@@H](CC(C)C)NC(=O)[C@H](CCN)NC2=O)NC(=O)[C@H](CCCN)NC(=O)[C@H](CCN)NC(=O)[C@H](Cc2ccc(O)cc2)NC(=O)[C@H](CO)NC1=O [Ex. 195] (H-CW[Dab][Tle]AS[dP]P[Nle]SY[Dab][Orn]C[dDab][Dab][Dab][dL]L[Dab][Dab]T; disulfide 1-14; lactam 16-C) | 0.5 | 0.125 | 0.125 | 1 | <1 | 
6 | CC(C)C[C@@H]1NC(=O)[C@@H](Cc2ccccc2)NC(=O)[C@H](CCN)NC(=O)[C@@H](NC(=O)[C@H](CCN)NC(=O)[C@H](CCCN)NC(=O)[C@@H]2CSSC[C@H](NC(=O)[C@H](Cc3c[nH]c4ccccc34)NC(=O)CN)C(=O)N[C@@H](C(C)(C)C)C(=O)N[C@@H](C)C(=O)N[C@@H](CO)C(=O)N3CCC[C@@H]3C(=O)N3CCC[C@H]3C(=O)N[C@@H](CC3CCCC3)C(=O)N[C@@H](CO)C(=O)N[C@@H](Cc3ccc(O)cc3)C(=O)N2)CCNC(=O)[C@H]([C@@H](C)O)NC(=O)[C@H](CCN)NC(=O)[C@H](CCN)NC1=O [Ex. 183] (H-GWC[Tle]AS[dP]P[Ala(cPent)]SYC[Orn][Dab][Dab][Dab][dF]L[Dab][Dab]T; disulfide 3-12; lactam 15-C) | 0.25 | 0.125 | 0.125 | 0.5 | 2 | 
7 | CC(C)C[C@@H]1NC(=O)[C@@H](CC(C)C)NC(=O)[C@H](CCN)NC(=O)[C@@H](NC(=O)[C@H](CCN)NC(=O)[C@@H](NC(=O)[C@H](CCN)NC(=O)CNC(=O)[C@H](CCN)NC(=O)[C@H](Cc2ccc(O)cc2)NC(=O)[C@@H]2CSSC[C@H](NC(=O)[C@H](Cc3ccc(O)cc3)NC(=O)[C@H](CCN)NC(=O)[C@@H](N)Cc3c[nH]c4ccccc34)C(=O)N[C@@H](CO)C(=O)N3CCC[C@@H]3C(=O)N3CCC[C@H]3C(=O)N[C@@H](CC(C)C)C(=O)N2)[C@@H](C)O)CCNC(=O)[C@H]([C@@H](C)O)NC(=O)[C@H](CCN)NC(=O)[C@H](CCN)NC1=O [Ex. 165] (H-W[Dab]YCS[dP]PLCY[Dab]G[Dab]T[Dab][Dab][Dab][dL]L[Dab][Dab]T; disulfide 4-9; lactam 16-C) | 2 | 0.5 | 1 | 1 | 1 | 
8 | CC(C)C[C@@H]1NC(=O)[C@H](CCCNC(=N)N)NC(=O)[C@@H](CCN)NC(=O)[C@H](C(C)C)NC(=O)[C@H](C)NC(=O)[C@H](Cc2ccc(O)cc2)NC(=O)[C@H](CCN)NC(=O)[C@H](Cc2c[nH]c3ccccc23)NC(=O)[C@H](CCN)NC(=O)[C@@H](CCN)NC(=O)[C@H](CCC(=O)N[C@@H](CCN)C(=O)N[C@H](C(=O)N[C@@H](CCN)C(=O)N[C@H]2CCNC(=O)[C@H]([C@@H](C)O)NC(=O)[C@H](CCN)NC(=O)[C@H](CCN)NC(=O)[C@H](CC(C)C)NC(=O)[C@@H](CC(C)C)NC(=O)[C@H](CCN)NC2=O)[C@@H](C)O)NC(=O)[C@H](CCN)NC(=O)[C@H](Cc2ccc(O)cc2)NC(=O)[C@H](CO)NC1=O [Ex. 97] (I: cyclo(AV[dDab]RLSY[Dab]E[dDab][Dab]W[Dab]Y) / II: [Dab]T[Dab][Dab][Dab][dL]L[Dab][Dab]T; amide I:9-II:N; lactam II:4-II:C) | 2 | 0.5 | 0.5 | 0.5 |  | 1
